Results on three compounds are retold here after US20250152627A1, “COMPOSITIONS AND METHODS FOR ENHANCING IMMUNE CELL FUNCTION USING MODIFIED CELLS WITH GLYCOCALYX EDITING ENZYMES” (Cornell University, priority 2021, published 2025).

Holding throughout (type): cell-based
Experiment [1] has as its system 1E7 cells. In words: Ring-SAIM glycocalyx material thickness, wild-type 1E7 cells. Particulars: wild-type 1E7 cells, 1,000 ng/mL doxycycline induction; TD139 at 10 μm. As to the method:
Silicon wafers with ˜1900 nm thermal oxide (Addison Engineering) were diced into 7 mm by 7 mm chips, and the oxide layer thickness for each chip was measured with a FilMetrics F50-EXR. Prior to use, the chips were then cleaned with 1:1 methanol and hydrochloric acid for 15 minutes, followed by 1 minutes in a plasma cleaner (Harrick Plasma, PDC-001). The chips were incubated with 4% (v/v) (3-mercaptopropyl)trimethoxysilane in absolute ethanol for 30 minutes at room temperature. After washing with absolute ethanol, the chips were subsequently incubated with 4 mM 4-maleimidobutyric acid N-hydroxysuccinimide ester in absolute ethanol for 30 minutes and rinsed with PBS. 50 μg/mL human plasma fibronectin in PBS was incubated with the functionalized chips overnight at 4° C. for conjugation. Cells were seeded onto the chips at 2×10^4 cm^−2 in full culture medium with varying doxycycline concentrations and incubated for 24 hours. Cells expressing different length of Muc1 were labelled with GFP nanobody conjugated to Alexa Fluor 647 in MCF10A growth media for 10 minutes at 37° C. Cells were labelled with MemGlow dye or CellBrite Steady 550 in serum-free, phenol red-free DMEM/F12 for 10 minutes at 37° C. Sample were then rinsed 3× in PBS, inverted into a 35 mm glass-bottom imaging dish containing imaging buffer (MemGlow dye or CellBrite dye: serum-free, phenol red-free DMEM/F12, Alexa Fluor 647-conjugated GFP nanobody: phenol red-free DMEM/F12 supplemented with 5% horse serum, 20 ng/mL EGF, […], 500 ng/mL hydrocortisone, 100 ng/mL cholera toxin and 1× penicillin/streptomycin) and imaged at 37° C. […]
(§1) Scanning angle interference microscopy (SAIM) was conducted on a custom circle-scanning microscope.^40 The core of the setup was an inverted fluorescence microscope (Ti-E, Nikon). […] Fluorescence emission was collected with a quad band filter cube and single band filters (TRF89901-EMv2, Chroma) mounted in a motorized filter wheel (Sutter). […]

In experiment [2] the test system is cell surface Muc1. Kind of experiment: Fluorescence recovery after photobleaching (FRAP) of Muc1-GFP. Particulars: 1E7 GCNT1 OE with 10 μM recombinant human galectin-1. The protocol: FRAP experiments were performed by using a Zeiss i880 confocal microscope with 63×N.A. 1.4 Oil immersion lens. Five pre-bleached images were firstly taken and photobleaching was performed with 488 nm laser for about 10 seconds to bleach a target area of 2.55 μm×2.55 μm. 1E7 clone (n=11) and 1E7 GCNT1 overexpression (n=10) were used to measure mobile fraction of Muc1-GFP. 10 μM recombinant human galectin-1 was incubated with 1E7 GCNT1 cells for 10 minutes at 37° C. (n=9). Intensity profiles were corrected by normalizing to the time-course decay of GFP signal in non-bleached area by using MATLAB code from Advanced Imaging Center (https://www.mathworks.com/matlabcentral/fileexchange/47327-frap-zip)

In experiment [3] the test system is 1E7 cells overexpressing GCNT1. In words: Ring-SAIM glycocalyx material thickness, GCNT1 overexpressing 1E7 cells. Particulars: 1E7 cells overexpressing GCNT1, treatment with recombinant galectin. The protocol:
Silicon wafers with ˜1900 nm thermal oxide (Addison Engineering) were diced into 7 mm by 7 mm chips, and the oxide layer thickness for each chip was measured with a FilMetrics F50-EXR. Prior to use, the chips were then cleaned with 1:1 methanol and hydrochloric acid for 15 minutes, followed by 1 minutes in a plasma cleaner (Harrick Plasma, PDC-001). The chips were incubated with 4% (v/v) (3-mercaptopropyl)trimethoxysilane in absolute ethanol for 30 minutes at room temperature. After washing with absolute ethanol, the chips were subsequently incubated with 4 mM 4-maleimidobutyric acid N-hydroxysuccinimide ester in absolute ethanol for 30 minutes and rinsed with PBS. 50 μg/mL human plasma fibronectin in PBS was incubated with the functionalized chips overnight at 4° C. for conjugation. Cells were seeded onto the chips at 2×10^4 cm^−2 in full culture medium with varying doxycycline concentrations and incubated for 24 hours. […]
as §1

In the case of `OC[C@H]1O[C@@H](S[C@@H]2O[C@H](CO)[C@H](O)[C@H](n3cc(-c4cccc(F)c4)nn3)[C@H]2O)[C@H](O)[C@@H](n2cc(-c3cccc(F)c3)nn2)[C@H]1O` [TD139], the “change of the material thickness of the glycocalyx” value (“change” below) in experiment [1] is “did not significantly change”.

With “recombinant galectin-1: recombinant human galectin-1 (LGALS1) expressed in E. coli”, in experiment [2], the “effect on mobility and mobile fraction of cell surface Muc1” value is given as “does not significantly affect”. In addition, the “decrease of glycocalyx thickness compared to untreated cells” value in experiment [3] was determined as 19.4 nm. In addition, in experiment [1], the “change” value is on record as “did not significantly change”.

“recombinant galectin-3: recombinant human galectin-3 (LGALS3) expressed in E. coli”: in experiment [3], the “decrease of glycocalyx thickness compared to untreated cells” value is 9.5 nm. In experiment [1], the “change” value is given as “did not significantly change”.
